Assay [1] addresses T1, IRAK4 (Homo sapiens, UniProt Q9NWZ3).
T1 sequence (Q9NWZ3 1-460): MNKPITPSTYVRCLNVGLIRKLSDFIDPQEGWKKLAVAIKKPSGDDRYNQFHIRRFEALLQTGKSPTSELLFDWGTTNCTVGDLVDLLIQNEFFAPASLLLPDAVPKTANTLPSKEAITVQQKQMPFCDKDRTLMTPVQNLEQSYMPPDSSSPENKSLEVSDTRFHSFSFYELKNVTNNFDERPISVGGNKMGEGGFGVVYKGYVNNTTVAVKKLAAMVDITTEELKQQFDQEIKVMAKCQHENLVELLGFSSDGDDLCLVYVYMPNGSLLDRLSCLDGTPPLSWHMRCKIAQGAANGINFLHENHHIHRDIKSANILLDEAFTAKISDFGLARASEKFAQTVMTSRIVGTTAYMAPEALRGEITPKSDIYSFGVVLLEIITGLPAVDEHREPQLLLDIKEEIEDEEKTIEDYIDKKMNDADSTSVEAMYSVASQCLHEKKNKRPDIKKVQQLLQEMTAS
Description: WB detection of proteolysis (Western Blot, THP-1 cells). Format: cell-based. As to the method: The degradation level of IRAK4 in THP-1 cells was detected by Western Blot technology. […] 1000X gradient dilution stock of the compound was prepared, with the highest concentration set at 300 µM. The dilution was carried out using DMSO in a 1:3 dilution factor, yielding a total of 9 concentrations. 1000X gradient dilutions of the compound were added to a 12-well plate, with 1 µL per well. Incubation was performed under conditions of 37°C and 5% CO2 for 24 h, and the cells were collected into 2 mL of centrifuge tubes and centrifuged at 5000 rpm for 5 min, and the supernatant was removed. 100 µL of RIPA lysis buffer (Beyotime, P0013C) was added and mixed uniformly, then the cells were lysed on ice for 10 min, centrifuged at 4°C at 14000 rpm for 10 min, and the supernatant was collected. Protein content was determined with BCA (Solarbio, PC0020-10*50T). 75 µL of the supernatant was taken, and 25 µL of NuPAGE LDS Sample Buffer (4X) (Thermo B0007) was added to each tube (5% β-mercaptoethanol was added before use) to prepare samples, and the samples were boiled in a metal bath at 100°C for 5 min. […] 1x NuPAGE™ MOPS SDS electrophoresis buffer (20X) (Invitrogen, NP0001) was prepared, and the electrophoresis instrument was set to a constant current of 300 mA for 100 min, and the protein was transferred to a PVDF membrane (Millipore, IPVH00010). […] The membrane was washed three times with 1x TBST (Elabscience E-BC-R335) the next day, each time for 5 min. […] The membrane was washed three times with TBST, each time for 5 min. The Odyssey imaging system Li-cor Odyssey CLx was used to detect signals and analyze data. GraphPad (Prism 9.3) software was used to perform analysis for data, and non-linear fitting (non-liner inhibitor (Bell-shaped)) and four parameters (4 parameter) were used, and the parameters was as follows: Span1 = Plateau1−Dip [formula] Span2 = Plateau2−Dip [formula] Section1 = Span1/(1+10^(∧)((LogEC50_1−X)*nH1)) [formula] Section2 = Span2/(1+10^(∧)((X−LogEC50_2)*nH2)) [formula]
The equation was as follows: Y=Dip+Section1+Section2.
Background: In western blotting, separated proteins are transferred to a membrane and probed.

Assay [2] addresses T1, IRAK4. Briefly: Hibit fluorescence detection of proteolysis (IRAK4-HiBiT in HEK293T cells). Format: cell-based. Also noted: host or cells: HEK293T (ATCC). The settings on record: for Dmax: HEK-293T; for DC50: IRAK4-HiBiT, HEK293T cells, 24 h. The method in brief:
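Degradation read-out: luminescence from lytic HiBiT detection (15 min, room temperature) after 24 h compound exposure (37 °C, 5% CO2) of HEK293T cells transiently expressing IRAK4 fused to a HiBiT tag. Data fitted to a bell-shaped four-parameter model giving two EC50 values.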

Where [3] appears, read: Western Blot, THP-1 cells, 24 h, read-out: DC50.
Where [4] appears, read: Western Blot, THP-1 cells, 24 h, read-out: Dmax.

Turning to `Cn1c(=O)n(C2CCC(=O)NC2=O)c2cccc(N3CCC4(CCN(C[C@H]5CC[C@H](n6cc(-n7cc(-c8ccc9cc(C(N)=O)cnn89)nn7)c(C(F)F)n6)CC5)CC4)CC3)c21` (some centres unmarked) [Example 85, 7-(1-(3-(difluoromethyl)-1-((1r,4r)-4-((9-(1-(2,6-dioxopiperidin-3-yl)-3-methyl-2-oxo-2,3-dihydro-1H-benzo[d]imidazol-4-yl)-3,9-diazaspiro[5.5]undecan-3-yl)methyl)cyclohexyl)-1H-pyrazol-4-yl)-1H-1,2,3-triazol-4-yl)pyrrolo[1,2-b]pyridazine-3-carboxamide], the DC50 at IRAK4 [1] (setting [3]) was less than 10 nM; at IRAK4 [2], less than 0.5 nM. The Dmax on IRAK4 [1] (setting [4]) was more than 70%; at IRAK4 [2] it was more than 80%.

As to `Cn1c(=O)n(C2CCC(=O)NC2=O)c2cccc(N3CCC(N4CCN(C[C@H]5CC[C@H](n6cc(-n7cc(-c8cnn9ccc(N%10CCC(O)CC%10)nc89)nn7)c(C(F)F)n6)CC5)CC4)CC3)c21` (some centres unmarked) [Example 135], the DC50 is less than 10 nM at IRAK4 [1] (setting [3]) and less than 0.5 nM at IRAK4 [2]. Besides, the Dmax at IRAK4 [1] (setting [4]) was more than 70%; at IRAK4 [2] it was more than 80%.

On to `Cn1c(=O)n(C2CCC(=O)NC2=O)c2cccc(N3CCC4(CCN(C[C@H]5CC[C@H](n6cc(-n7cc(-c8cnn9ccc(N[C@H]%10CCCC[C@H]%10O)nc89)nn7)c(C(F)F)n6)CC5)CC4)CC3)c21` (some centres unmarked) [Example 148], for which the DC50 on IRAK4 [1] (setting [3]) was 10 to 30 nM; at IRAK4 [2], less than 0.5 nM. Besides, the Dmax at IRAK4 [1] (setting [4]) was more than 70%; on IRAK4 [2], more than 80%.

As for `Cn1c(=O)n(C2CCC(=O)NC2=O)c2cccc(N3CCC4(CCN(C[C@H]5CC[C@H](n6cc(-n7cc(-c8cnn9ccc(N%10CCC[C@H](N)C%10)nc89)nn7)c(C(F)F)n6)CC5)CC4)CC3)c21` (some centres unmarked) [Example 120], the figures for the DC50 on IRAK4 [1] (setting [3]) and on IRAK4 [2] were less than 10 nM and 0.5 to 1 nM, respectively. Besides, the Dmax at IRAK4 [1] (setting [4]) is more than 70%; at IRAK4 [2] it was more than 80%.

In the case of `Cn1c(=O)n(C2CCC(=O)NC2=O)c2cccc(N[C@H]3CC[C@H](N(C)C[C@H]4CC[C@H](n5cc(-n6cc(-c7cnn8ccc(N9CCOCC9)nc78)nn6)c(C(F)F)n5)CC4)CC3)c21` (stereo partly drawn) [Example 55, 3-(4-(((1R,4r)-4-((((1r,4R)-4-(3-(difluoromethyl)-4-(4-(5-morpholinopyrazolo[1,5-a]pyrimidin-3-yl)-1H-1,2,3-triazol-1-yl)-1H-pyrazol-1-yl)cyclohexyl)methyl)(methyl)amino)cyclohexyl)amino)-3-methyl-2-oxo-2,3-dihydro-1H-benzo[d]imidazol-1-yl)piperidine-2,6-dione], the Dmax at IRAK4 [1] (THP-1) is less than 60%; on IRAK4 [2], more than 80%. Moreover, the DC50 at IRAK4 [1] (Western Blot, THP-1 cells, 24 h) is less than 10 nM; at IRAK4 [2] it was less than 0.5 nM.

`Cn1c(=O)n(C2CCC(=O)NC2=O)c2cccc(N3CCN(C4CCN(C[C@H]5CC[C@H](n6cc(-n7cc(-c8cnn9ccc(N%10CCC[C@H](O)C%10)nc89)nn7)c(C(F)F)n6)CC5)CC4)CC3)c21` (some centres unmarked) [Example 144]: the DC50 at IRAK4 [1] (setting [3]) was less than 10 nM; at IRAK4 [2], less than 0.5 nM. Besides, the Dmax is more than 70% on IRAK4 [1] (setting [4]) and more than 80% at IRAK4 [2].

As for `Cn1c(=O)n(C2CCC(=O)NC2=O)c2cccc(N3CCC4(CCN(C[C@H]5CC[C@H](n6cc(-n7cc(-c8cnn9ccc(NCC%10CC%10)nc89)nn7)c(C(F)F)n6)CC5)C4)CC3)c21` (some centres unmarked) [Example 113], the DC50 on IRAK4 [1] (setting [3]) was more than 30 nM; on IRAK4 [2], less than 0.5 nM. The figures for the Dmax on IRAK4 [1] (setting [4]) and at IRAK4 [2] were 60 to 70% and more than 80%, respectively.

Turning to `C[C@H]1CN(c2ccn3ncc(-c4cn(-c5cn([C@H]6CC[C@H](CN7CCC8(CC7)CN(c7cccc9c7n(C)c(=O)n9C7CCC(=O)NC7=O)C8)CC6)nc5C(F)F)nn4)c3n2)CCO1` (some centres unmarked) [Compound 178], the figures for the DC50 at IRAK4 [1] (setting [3]) and at IRAK4 [2] (read-out: DC50) were less than 10 nM and less than 0.5 nM, respectively. The Dmax on IRAK4 [1] (setting [4]) is more than 70%; at IRAK4 [2] it was more than 80%.

`Cn1c(=O)n(C2CCC(=O)NC2=O)c2cccc(N3CCN(C[C@H]4CC[C@H](n5cc(-n6cc(-c7cnn8ccc(N9CCOCC9)nc78)nn6)c(C(F)F)n5)CC4)CC3)c21` (some centres unmarked) [Example 30]: the DC50 is less than 10 nM at IRAK4 [1] (setting [3]) and less than 0.5 nM at IRAK4 [2]. The Dmax at IRAK4 [1] (setting [4]) is less than 60%; on IRAK4 [2], more than 80%.

Regarding `Cn1c(=O)n(C2CCC(=O)NC2=O)c2cccc(N3CCC4(CCN(C[C@H]5CC[C@H](n6cc(-n7cc(-c8cnn9ccc(N%10CCOCC%10)nc89)nn7)c(C(F)F)n6)CC5)C4)CC3)c21` (some centres unmarked) [Example 39, 3-(4-(2-(((1r,4r)-4-(3-(difluoromethyl)-4-(4-(5-morpholinopyrazolo[1,5-a]pyrimidin-3-yl)-1H-1,2,3-triazol-1-yl)-1H-pyrazol-1-yl)cyclohexyl)methyl)-2,8-diazaspiro[4.5]dec-8-yl)-3-methyl-2-oxo-2,3-dihydro-1H-benzo[d]imidazol-1-yl)piperidine-2,6-dione], the DC50 at IRAK4 [1] (setting [3]) was less than 10 nM; on IRAK4 [2], less than 0.5 nM. Besides, the Dmax was more than 70% on IRAK4 [1] (setting [4]) and more than 80% on IRAK4 [2].

For the compound `C[C@H]1COCCN1c1ccn2ncc(-c3cn(-c4cn([C@H]5CC[C@H](CN6CCC7(CC6)CCN(c6cccc8c6n(C)c(=O)n8C6CCC(=O)NC6=O)C7)CC5)nc4C(F)F)nn3)c2n1` (some centres unmarked) [Compound 204], the figures for the DC50 at IRAK4 [1] (setting [3]) and at IRAK4 [2] (read-out: DC50) were less than 10 nM and less than 0.5 nM, respectively. The Dmax on IRAK4 [1] (setting [4]) fell in the range of 60 to 70%; at IRAK4 [2], 70 to 80%.

As to `Cn1c(=O)n(C2CCC(=O)NC2=O)c2cccc(N3CCC4(CCN(C[C@H]5CC[C@H](n6cc(-n7cc(-c8cnn9ccc(NCC%10CC%10)nc89)nn7)c(C(F)F)n6)CC5)CC4)CC3)c21` (some centres unmarked) [Example 108], the DC50 on IRAK4 [1] (setting [3]) was less than 10 nM; at IRAK4 [2], less than 0.5 nM. Moreover, the Dmax at IRAK4 [1] (setting [4]) was more than 70%; at IRAK4 [2] it was more than 80%.

Take `Cn1c(=O)n(C2CCC(=O)NC2=O)c2cccc(N[C@H]3CC[C@@H](N(C)C[C@H]4CC[C@H](n5cc(-n6cc(-c7cnn8ccc(N9CCOCC9)nc78)nn6)c(C(F)F)n5)CC4)CC3)c21` (some centres unmarked) [Example 54]: the DC50 at IRAK4 [1] (setting [3]) is less than 10 nM; on IRAK4 [2], less than 0.5 nM. For the same compound, the values for the Dmax on IRAK4 [1] (setting [4]) and at IRAK4 [2] were 60 to 70% and more than 80%, respectively.

Consider `Cn1c(=O)n(C2CCC(=O)NC2=O)c2cccc(N3CCC(N4CCN(C[C@H]5CC[C@H](n6cc(-n7cc(-c8cnn9ccc(N[C@H]%10CCCC[C@H]%10O)nc89)nn7)c(C(F)F)n6)CC5)CC4)CC3)c21` (some centres unmarked) [Example 122], for which the results for the DC50 at IRAK4 [1] (setting [3]) and on IRAK4 [2] were less than 10 nM and less than 0.5 nM, respectively. The Dmax on IRAK4 [1] (setting [4]) is more than 70%; on IRAK4 [2], more than 80%.

`Cn1c(=O)n(C2CCC(=O)NC2=O)c2cccc(N3CCC4(CCN(C[C@H]5CC[C@H](n6cc(-n7cc(-c8cnn9ccc(N%10CCC(O)CC%10)nc89)nn7)c(C(F)F)n6)CC5)C4)CC3)c21` (some centres unmarked) [Example 139]: the results for the DC50 on IRAK4 [1] (setting [3]) and on IRAK4 [2] were less than 10 nM and less than 0.5 nM, respectively. Moreover, the figures for the Dmax at IRAK4 [1] (setting [4]) and on IRAK4 [2] were more than 70% and more than 80%, respectively.

As for `Cn1c(=O)n(C2CCC(=O)NC2=O)c2cccc(N3CC4(CCN(C[C@H]5CC[C@H](n6cc(-n7cc(-c8ccc9cc(C(N)=O)cnn89)nn7)c(C(F)F)n6)CC5)CC4)C3)c21` (some centres unmarked) [Example 35], the values for the DC50 at IRAK4 [1] (setting [3]) and on IRAK4 [2] were less than 10 nM and less than 0.5 nM, respectively. Further, the Dmax at IRAK4 [1] (setting [4]) was 60 to 70%; at IRAK4 [2] it was more than 80%.

`Cn1c(=O)n(C2CCC(=O)NC2=O)c2cccc(N3CCC4(CCN(C[C@H]5CC[C@H](n6cc(-n7cc(-c8cnn9ccc(N%10CCC[C@H](N)C%10)nc89)nn7)c(C(F)F)n6)CC5)CC4)C3)c21` (some centres unmarked) [Example 116]: the DC50 on IRAK4 [1] (setting [3]) lay within 10 to 30 nM; at IRAK4 [2], 0.5 to 1 nM. Also, the values for the Dmax on IRAK4 [1] (setting [4]) and on IRAK4 [2] were 60 to 70% and more than 80%, respectively.

Values taken from patent publication EP4759807A1, “PROTEOLYSIS TARGETING CHIMERA COMPOUND FOR DEGRADING IRAK4 AND USE THEREOF” (Shenzhen Zhongge Biological Technology Co., Ltd., priority 2023, dated 2025).
